# Values of other authors as cited in patent US20230364118A1, “RIBITOL TREATMENT” (priority 2020, published 2023).
# Details: rabbits; cited from earlier work
compound,measurement,value
O=C[C@H](O)[C@H](O)[C@H](O)CO [D-ribose],half-life,14 to 24 min
